Where two headings read alike, the source gives them in different places.
Tests used:
[1] = Cytotoxicity determination in HepG2.2.15 cells (CCK-8); assay type: cell-based; conditions: human, 6 days of compound treatment, CCK-8, highest concentration 100 μM
In short: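 CC50 is from CCK-8 absorbance (450 nm, 630 nm reference) after 2.5 h with reagent. Before that, compounds were applied for six days, top concentration 100 μM, eight threefold dilutions, one mid-course medium change, to stably HBV-integrated HepG2.2.15 cells plated at 5,000/well in 2% FBS.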

HBV = HBV inhibitory activity: HBV DNA in the culture medium of HepG2.2.15 cells by q-PCR; assay type: cell-based; conditions: HepG2.2.15 cells, 6 days of compound treatment, HBV DNA in culture medium by q-PCR, highest concentration 10 μM, read-out: EC50
In short: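 Supernatant HBV DNA quantified by q-PCR after a 6-day compound exposure, with one mid-course medium change, of HepG2.2.15 cells (stably integrated HBV; 40,000 per well, 2% FBS). Eight-point 3-fold series topped at 10 μM for antiviral EC50; separate plates of 5,000 cells per well with 100 μM top give CC50.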

[2] = Hepatitis B virus, HepG2.2.15, 144 h

Structure (SMILES) | CC50 at 6 days [1] [µM] | EC50 (HBV; [2]) [µM] | EC50 (HBV) [µM]
COC(=O)CCS(=O)(=O)N1CCC(C2=C(C(=O)OC)C(c3ccc(F)c(F)c3Cl)N=C(c3nccs3)N2)CC1 (stereo not drawn) [Compound 157A, Methyl 4-(2-chloro-3,4-difluorophenyl)-6-(1-((3-methoxy-3-oxopropyl)sulfonyl)piperidin-4-yl)-2-(thiazol-2-yl)-1,4-dihydropyrimidine-5-carboxylate] | 80 | 0.085 | –
COC(=O)C1=C(C2CCN(S(=O)(=O)c3cn[nH]c3)CC2)NC(c2nccs2)=NC1c1cccc(F)c1Cl (stereo not drawn) [Compound 158A, methyl 6-(1-((1H-pyrazol-4-yl)sulfonyl)piperidin-4-yl)-4-(2-chloro-3-fluorophenyl)-2-(thiazol-2-yl)-1,4-dihydropyrimidine-5-carboxylate] | 12.7 | 0.009 | –
CCOC(=O)C1=C([C@H]2CC[C@H](C(N)=O)CC2)NC(c2nccs2)=NC1c1ccc(F)cc1Cl (stereo partly drawn) [Compound 163, (trans)-ethyl 6-(−4-carbamoylcyclohexyl)-4-(2-chloro-4-fluorophenyl)-2-(thiazol-2-yl)-1,4-dihydropyrimidine-5-carboxylate] | 23.9 | 0.065 | –
COC(=O)C1=C(C2CCN(S(=O)(=O)N3CCOCC3)CC2)NC(c2nccs2)=NC1c1ccc(F)cc1Cl (stereo not drawn) [Compound 164, Methyl 4-(2-chloro-4-fluorophenyl)-6-(1-(morpholinosulfonyl)piperidin-4-yl)-2-(thiazol-2-yl)-1,4-dihydropyrimidine-5-carboxylate] | 57.4 | 0.058 | –
COC(=O)C1=C(C2CCN(S(=O)(=O)c3cnn(C)c3)CC2)NC(c2nccs2)=NC1c1ccc(F)cc1Cl (stereo not drawn) [Compound 165, Methyl 4-(2-chloro-4-fluorophenyl)-6-(1-((1-methyl-1H-pyrazol-4-yl)sulfonyl)piperidin-4-yl)-2-(thiazol-2-yl)-1,4-dihydropyrimidine-5-carboxylate] | > 100 | 0.012 | –
COC(=O)C1=C(C2CCC(N(C)C(C)=O)C2)NC(c2nccs2)=NC1c1cccc(F)c1Cl (stereo not drawn) [Compound 170, Methyl 4-(2-chloro-3-fluorophenyl)-6-(3-(N-methylacetamido)cyclopentyl)-2-(thiazol-2-yl)-1,4-dihydropyrimidine-5-carboxylate] | 14.9 | 0.533 | –
COC(=O)C1=C(C2CCCC(NS(C)(=O)=O)CC2)NC(c2nccs2)=NC1c1ccc(F)cc1Cl (stereo not drawn) [Compound 190, Methyl 4-(2-chloro-4-fluorophenyl)-6-(4-(methylsulfonamido)-cycloheptyl)-2-(thiazol-2-yl)-1,4-dihydropyrimidine-5-carboxylate] | 15 | 0.078 | –
CCOC(=O)C1=C(C2CCN(S(=O)(=O)[C@H]3C[C@H](C(=O)O)C3)CC2)NC(c2c(F)cc(F)cc2F)=NC1c1ccc(F)c(F)c1Cl (stereo partly drawn) [Compound 195A, (trans)-3-((4-(6-(2-Chloro-3,4-difluorophenyl)-5-(ethoxycarbonyl)-2-(2,4,6-trifluorophenyl)-3,6-dihydropyrimidin-4-yl)piperidin-1-yl)sulfonyl)cyclobutanecarboxylic Acid] | 43.9 | 0.084 | –
CCOC(=O)C1=C(C2CCN(S(=O)(=O)[C@H]3C[C@H](C(=O)O)C3)CC2)NC(c2nccs2)=NC1c1ccc(F)c(F)c1Br (stereo partly drawn) [Compound 199A, (trans)-3-((4-(6-(2-bromo-3,4-difluorophenyl)-5-(ethoxycarbonyl)-2-(thiazol-2-yl)-3,6-dihydropyrimidin-4-yl)piperidin-1-yl)sulfonyl)cyclobutanecarboxylic Acid] | 35.8 | 0.056 | –
COC(=O)C1=C(C2CCN(S(=O)(=O)c3nccs3)CC2)NC(c2nccs2)=NC1c1ccc(F)cc1Cl (stereo not drawn) [Compound 200A, Methyl 4-(2-chloro-4-fluorophenyl)-2-(thiazol-2-yl)-6-(1-(thiazol-2-ylsulfonyl)piperidin-4-yl)-1,4-dihydropyrimidine-5-carboxylate] | > 100 | 0.102 | –
COC(=O)C1=C(C2CCN(S(=O)(=O)c3cn(C)cn3)CC2)NC(c2nccs2)=NC1c1ccc(F)cc1Cl (stereo not drawn) [Compound 201A, Methyl 4-(2-chloro-4-fluorophenyl)-6-(1-((1-methyl-1H-imidazol-4-yl)sulfonyl)piperidin-4-yl)-2-(thiazol-2-yl)-1,4-dihydropyrimidine-5-carboxylate] | 15.7 | 0.053 | –
COC(=O)C1=C(C23CC(NS(C)(=O)=O)(C2)C3)NC(c2nccs2)=NC1c1ccc(F)c(F)c1Cl (stereo not drawn) [Compound 204A, Methyl 4-(2-chloro-3,4-difluorophenyl)-6-(3-(methyl-sulfonamido)bicyclo[0.1.1.1]pentan-1-yl)-2-(thiazol-2-yl)-1,4-dihydropyrimidine-5-carboxylate] | 23.8 | 0.007 | –
COC(=O)C1=C(C2CCN(S(C)(=N)=O)CC2)NC(c2nccs2)=NC1c1ccc(F)c(F)c1Cl (stereo not drawn) [Compound 205A, methyl 4-(2-chloro-3,4-difluorophenyl)-6-(1-(S-methylsulfonimidoyl)piperidin-4-yl)-2-(thiazol-2-yl)-1,4-dihydropyrimidine-5-carboxylate] | 42.3 | – | 0.007
COC(=O)C1=C(C23CC(NS(=O)(=O)c4cccc(C(=O)O)c4)(C2)C3)NC(c2nccs2)=NC1c1ccc(F)cc1Cl (stereo not drawn) [Compound 208B, 3-(N-(3-(6-(2-Chloro-4-fluorophenyl)-5-(methoxycarbonyl)-2-(thiazol-2-yl)-3,6-dihydropyrimidin-4-yl)bicyclo[1.1.1]pentan-1-yl)sulfamoyl)benzoic acid] | > 100 | 0.28 | –
COC(=O)C1=C([C@@H]2CO[C@@H](C(=O)O)C2)NC(c2nccs2)=N[C@H]1c1cccc(F)c1Cl [Compound 212A] | > 100 | 1.01 | –
COCCS(=O)(=O)N1CCC(C2=C(C(=O)OC)C(c3ccc(F)cc3Cl)N=C(c3nccs3)N2)CC1 (stereo not drawn) [Compound 215, Methyl 4-(2-chloro-4-fluorophenyl)-6-(1-((2-methoxyethyl)sulfonyl)piperidin-4-yl)-2-(thiazol-2-yl)-1,4-dihydropyrimidine-5-carboxylate] | 52.7 | 0.051 | –
COC(=O)C1=C(C2CCN(S(=O)(=O)CC(F)(F)F)CC2)NC(c2nccs2)=NC1c1ccc(F)cc1Cl (stereo not drawn) [Compound 216, Methyl 4-(2-chloro-4-fluorophenyl)-2-(thiazol-2-yl)-6-(1-((2,2,2-trifluoroethyl)sulfonyl)piperidin-4-yl)-1,4-dihydropyrimidine-5-carboxylate] | > 100 | 0.09 | –
COC(=O)C1=C(C2CCCC3(C2)OCCO3)NC(c2nccs2)=NC1c1ccc(F)cc1Cl (stereo not drawn) [Compound 218, Methyl 4-(2-chloro-4-fluorophenyl)-6-(1,4-dioxaspiro[4.5]decan-7-yl)-2-(thiazol-2-yl)-1,4-dihydropyrimidine-5-carboxylate] | 29.7 | 0.148 | –
COC(=O)C1=C(C2CCN(S(=O)(=O)CC(C)(C)C(=O)O)CC2)NC(c2nccs2)=NC1c1ccc(F)cc1Cl (stereo not drawn) [Compound 223, 3-((4-(6-(2-Chloro-4-fluorophenyl)-5-(methoxycarbonyl)-2-(thiazol-2-yl)-3,6-dihydropyrimidin-4-yl)piperidin-1-yl)sulfonyl)-2,2-dimethylpropanoic Acid] | 50 | 0.145 | –
COC(=O)C1=C([C@H]2CC[C@H](C(=O)O)CC2)NC(c2nccs2)=NC1c1ccc(F)cc1Br (stereo partly drawn) [Compound 225, (trans)-4-(6-(2-Bromo-4-fluorophenyl)-5-(methoxycarbonyl)-2-(thiazol-2-yl)-3,6-dihydropyrimidin-4-yl)cyclohexanecarboxylic Acid] | ≥ 100 | 0.087 | –
COC(=O)C1=C([C@H]2CC[C@H](C(=O)O)CC2)NC(c2nccs2)=NC1c1ccc(F)c(F)c1C (stereo partly drawn) [Compound 227A, (trans)-4-(−6-(3,4-Difluoro-2-methylphenyl)-5-(methoxycarbonyl)-2-(thiazol-2-yl)-3,6-dihydropyrimidin-4-yl)cyclohexanecarboxylic Acid] | 37.6 | 0.096 | –
COC(=O)C1=C([C@H]2CC[C@H](C(=O)O)CC2)NC(c2nccs2)=NC1c1ccc(F)c(F)c1Br (stereo partly drawn) [Compound 229B, (trans)-4-(6-(2-Bromo-3,4-difluorophenyl)-5-(methoxycarbonyl)-2-(thiazol-2-yl)-3,6-dihydropyrimidin-4-yl)cyclohexane-carboxylic Acid] | 32.1 | 0.011 | –
COC(=O)C1=C(C2CCN(S(=O)(=O)CCC(=O)O)CC2)NC(c2nccs2)=NC1c1ccc(F)c(F)c1Cl (stereo not drawn) [Compound 230, 3-((4-(6-(2-Chloro-3,4-difluorophenyl)-5-(methoxycarbonyl)-2-(thiazol-2-yl)-3,6-dihydropyrimidin-4-yl)piperidin-1-yl)sulfonyl)propanoic Acid] | > 100 | 0.146 | –
COC(=O)C1=C(C2CCN(S(=O)(=O)[C@H]3C[C@H](C(=O)O)C3)CC2)NC(c2nccs2)=NC1c1ccc(F)cc1Br (stereo partly drawn) [Compound 241B, (trans)-3-((4-(−6-(2-Bromo-4-fluorophenyl)-5-(methoxycarbonyl)-2-(thiazol-2-yl)-3,6-dihydropyrimidin-4-yl)piperidin-1-yl)sulfonyl)cyclobutanecarboxylic Acid] | 60 | 0.12 | –

— US11639350B2, “Heteroaryldihydropyrimidine derivatives and methods of treating hepatitis B infections” (Janssen Pharmaceutica NV, priority 2018, dated 2023)
